{"source": "patent EP3788116B1", "about": "“CHEMILUMINESCENT IMIDAZOPYRAZINONE-BASED PHOTOSENSITIZERS WITH AVAILABLE SINGLET AND TRIPLET EXCITED STATES” (Universidade do Porto, priority 2018, dated 2019)", "key": {"[1]": {"assay": "Singlet oxygen formation by quenching of ABDA fluorescence", "settings": "increasing concentrations of compound (0-15 microMolar); no external excitation; sodium azide prevented the quenching", "method": "The production of reactive triplet states by compound 1 was determined by assessing the formation of singlet oxygen. This latter species is formed by energy transfer from a triplet molecule to oxygen. To this end, 9,10-anthracenediyl-bis(methylene)dimalonic acid (ABDA) was added to a solution containing compound 1, as the fluorescence of ABDA is quenched by the formation of singlet oxygen. […] To confirm that the quenching of ABDA's fluorescence was due to the production of singlet oxygen, sodium azide was added to solutions containing ABDA and compound 1. Sodium azide is a known quencher of singlet oxygen. As expected, the addition of sodium azide prevented the quenching of the fluorescence emitted by ABDA (Figure 12)."}, "[2]": {"system": "HepG2 human liver cancer cell lines", "assay": "LDH release cytotoxicity assay", "assay_type": "cell-based", "settings": "HepG2, 24h exposure, read-out: toxicity", "method": "(§1) To assess if the produced singlet oxygen can induce cytotoxicity in tumor cells, toxicity assays were performed in vitro with compound 1 in HepG2 human liver cancer cell lines. Cytotoxicity of compound 1 was evaluated through the MTT and LDH assay, which has been widely used as a colorimetric approach based on the activity of mitochondrial dehydrogenase enzyme in cells. MTT test was performed after an incubation of 24h and 48h. LDH release was monitored following an incubation of 24h and 48h with different concentrations of Compound 1 (1, 10, 20, 50 and 100 µM). Percent viability was obtained by comparing with control cell viability, considered as 100%. Data represents the mean ± SD of measurements of three independent experiments. Results of the one-way ANOVA factorial analysis. […] Thus, compound 1 was indeed able to induce cytotoxicity without the need of external excitation sources."}, "[3]": {"system": "HepG2 human liver cancer cell lines", "assay": "MTT cytotoxicity assay", "assay_type": "cell-based", "settings": "HepG2, 24h exposure, versus control cell viability taken as 100%, read-out: toxicity", "method": "as §1"}}, "data": [{"molecule": "Cc1nc2c(Br)[nH]c(-c3ccc(O)cc3)cn-2c1=O", "note": "[Compound 1, 8-bromo-6-(4-hydroxyphenyl)-2-methylimidazo[1,2-a]pyrazin-3(7H)-one]", "values": [{"measurement": "fluorescence intensity of ABDA", "setting": "[1]", "value": "decreased significantly"}, {"measurement": "cytotoxicity at 50 µM", "setting": "[2]; 50 µM", "value": 15, "unit": "%"}, {"measurement": "cytotoxicity at 100 µM", "setting": "[2]; 100 µM", "value": 12, "unit": "%"}, {"measurement": "cytotoxicity at 50 µM", "setting": "[3]; 50 µM", "value": 15, "unit": "%"}, {"measurement": "cytotoxicity at 100 µM", "setting": "[3]; 100 µM", "value": 12, "unit": "%"}]}]}
